Source: patent US20240261297A1, “ANTI-CDK INHIBITORS FOR CANCER TREATMENT” (St. John's Cancer Institute, priority 2021, published 2024)
Read-outs that look alike come from different tables or passages of the source.

Key:
[1] = test system: caspase 3/7 in MDA-MB-468 cells; assay: Caspase Glo 3/7 activity assay in MDA-MB-468 cells; format: cell-based; details: 24 hours
Protocol: Further anti-proliferative effect of 1-3 was evaluated in the TNBC cell line MDA-MB-468 based on biomarker (CDK2) inhibition. […] The mechanistic cell cycle block is aligned with biomarker. In addition, Caspase Glo 3/7 activation was tested to confirm the sub-G1 (apoptotic) arrest in cell cycle.

CDK2/cyclin E [2] = biological target: T1, CDK2/cyclin E (Homo sapiens, UniProt P24941); assay: Radioisotope-based protein kinase assay; format: biochemical; details: 10 μM ATP, 3-fold dilution from 10 μM
Protocol: (§1) A series of test compounds were selected for initial screening against CDK isoforms. Protein kinase assays were performed with gold standard radioisotope-based assay formats to measuring enzyme activity remaining in presence and absence of inhibitor.

CDK2/cyclin A = CDK2/cyclin A (Homo sapiens, UniProt P24941); assay: Radioisotope-based protein kinase assay; format: biochemical; details: 10 μM ATP, 3-fold dilution from 10 μM
Protocol: as §1

CDK1/cyclin A = CDK1/cyclin A (Homo sapiens, UniProt P06493); assay: Radioisotope-based protein kinase assay; format: biochemical; details: 10 μM ATP, 3-fold dilution from 10 μM
Protocol: as §1

CDK9/cyclin T1 [3] = biological target: T2, CDK9/cyclin T1 (Homo sapiens, UniProt P50750); assay: Radioisotope-based protein kinase assay; format: biochemical; details: 10 μM ATP, 3-fold dilution from 10 μM
Protocol: as §1

CDK6/cyclin D1 = CDK6/cyclin D1 (Homo sapiens, UniProt Q00534); assay: Radioisotope-based protein kinase assay; format: biochemical; details: 10 μM ATP, 3-fold dilution from 10 μM
Protocol: as §1

CDK5/p25 = CDK5/p25 (Homo sapiens, UniProt Q00535); assay: Radioisotope-based protein kinase assay; format: biochemical; details: Table 1; 10 μM ATP
Protocol: as §1

CDK7/cyclin H [4] = biological target: T3, CDK7/cyclin H (Homo sapiens, UniProt P50613); assay: Radioisotope-based protein kinase assay; format: biochemical; details: 10 μM ATP, 3-fold dilution from 10 μM
Protocol: as §1

CDK1/cyclin B = CDK1/cyclin B (Homo sapiens, UniProt P06493); assay: Radioisotope-based protein kinase assay; format: biochemical; details: 10 μM ATP, 3-fold dilution from 10 μM
Protocol: as §1

CDK4/cyclin D1 = CDK4/cyclin D1 (Homo sapiens, UniProt P11802); assay: Radioisotope-based protein kinase assay; format: biochemical; details: 10 μM ATP, 3-fold dilution from 10 μM
Protocol: as §1

PLC/PRF/5 cells = assay: Cell viability of HCC cells by CellTiter Glo assay; format: cell-based; details: Homo sapiens, 72 hours
Protocol: FIG. 5 is a graph showing cell viability of hepatocellular carcinoma (HCC) cell lines treated with I-3 for 72 hours, assessed by CellTiter Glo assay, with the control level of cells considered 100%.
I-3 was also tested for efficacy on hepatocellular carcinoma (HCC) cell lines. Cell viability was measured by CellTiter Glo assay (FIG. 5 and Table 8).

MDA-MB-468 = assay: Cell viability in breast cancer cell lines; format: cell-based; details: Homo sapiens
From the text: (§2) Tables 5 and 6 show assessment of in vitro efficacy of I-3 in a panel of breast cancer cell lines.

CDK5/p35 = CDK5/p35 (Homo sapiens, UniProt Q00535); assay: Radioisotope-based protein kinase assay; format: biochemical; details: Table 2
Protocol: as §1
The activity of compound I-3 was compared to that of a panel of CDKs and their respective binding partners (Tables 2 and 3).

CKD9/Cyclin H = CKD9/Cyclin H (Homo sapiens, UniProt P50750); assay: Biochemical profile against CDKs and binding partners (Table 3)
Protocol: as §1

MCF-10A = assay: Cell viability in breast cell lines; format: cell-based; details: Homo sapiens, 72 hours
From the text: as §2

[5] = Snapshot plasma pharmacokinetics in mice; format: in vivo; details: mouse, in vivo; for AUC(0-inf): AUCinf
Protocol: Evaluation of pharmacokinetic (PK) parameters and efficacy of I-3 in a xenograft model was carried out in mice. […] Briefly, mice were treated with 5 mg/kg of 1-3 or merioline-3. Plasma was then collected at different time points and measured for drug concentration. […] PK parameters of I-3 was also compared to a panel of CDK inhibitors (Table 13). […] Likewise, Ribociclib has a better Cmax than I-3, but it is primarily a CDK4/6 inhibitor.

CDK9/cyclin T1 [6] = biological target: T2, CDK9/cyclin T1; assay: NanoBRET target engagement intracellular kinase assay in HEK293 cells; format: cell-based; details: transfected HEK293 cells; 10-dose, 3-fold from 10 μM, duplicate
Protocol: (§3) Compound 1-3 efficacy was assessed in several in vitro assays. A nanoBrET assay was used to measure intracellular kinase activity of I-3 with CDK2, CDK1, CDK7 and CDK9. Briefly, HEK293 cells were transfected with CDK2, CDK1, CDK7 and CDK9. The transfected cells were treated in duplicate with test compound I-3 (starting at 10 μM, 10-dose with 3-fold dilution) and target engagement was measured by NanoBRET assay (FIG. 2A and Table 4). Cellular thermal shift assay (CETSA) was also performed to evaluate drug target interaction in the cells. The CETSA method is built upon two concepts: cellular thermal shift and isothermal dose-response. The cellular thermal shift assay is based on the established fact that proteins that are complexed to a ligand become more resistant to heat induced unfolding. Isothermal dose response is used to determine a compound's potency in binding the target by measuring the thermal stability of the target treated with various concentrations of compound at a fixed temperature. Briefly, cell lysate was treated with I-3 (starting at 300 nM, 10-dose with 3-fold dilution) and incubated for 1 hour and cell lysates were then subjected to predetermined thermal aggregation temperature (58° C.) for another 20 min. Western blot was performed to determine the levels of target protein bound to I-3 (FIG. 2B).

CDK7/cyclin H [7] = biological target: T3, CDK7/cyclin H; assay: as above; format: cell-based; details: transfected HEK293 cells; 10-dose, 3-fold from 10 μM, duplicate
Protocol: as §3

CDK1/Cyclin B1 = biological target: T4, CDK1/Cyclin B1 (Homo sapiens, UniProt P06493); assay: as above; format: cell-based; details: transfected HEK293 cells; 10-dose, 3-fold from 10 μM, duplicate
T4 construct: expressed in transfected cells; host or cells: HEK293
Protocol: as §3

CDK2/Cyclin E1 = biological target: T5, CDK2/Cyclin E1 (Homo sapiens, UniProt P24941); assay: as above; format: cell-based; details: transfected HEK293 cells; 10-dose, 3-fold from 10 μM, duplicate
T5 construct: expressed in transfected cells; host or cells: HEK293
Protocol: as §3

CDK2/cyclin E [8] = biological target: T1, CDK2/cyclin E; assay: Cellular thermal shift assay (CETSA), isothermal dose response; format: binding; set-up: endogenous in cells; details: cell lysate, from 300 nM, 1 hour, 58° C. 20 min, Western blot
Protocol: as §3

T3 sequence (P50613 whole entry): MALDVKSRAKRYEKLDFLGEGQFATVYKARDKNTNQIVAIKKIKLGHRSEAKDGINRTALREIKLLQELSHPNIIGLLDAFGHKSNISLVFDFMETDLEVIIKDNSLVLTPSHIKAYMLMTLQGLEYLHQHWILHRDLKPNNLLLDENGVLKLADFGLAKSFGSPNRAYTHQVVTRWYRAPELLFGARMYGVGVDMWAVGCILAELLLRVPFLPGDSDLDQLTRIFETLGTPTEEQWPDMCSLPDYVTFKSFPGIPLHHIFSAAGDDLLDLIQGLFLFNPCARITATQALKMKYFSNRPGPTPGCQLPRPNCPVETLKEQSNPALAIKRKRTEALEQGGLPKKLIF
T3 sequence (P51946 whole entry partner): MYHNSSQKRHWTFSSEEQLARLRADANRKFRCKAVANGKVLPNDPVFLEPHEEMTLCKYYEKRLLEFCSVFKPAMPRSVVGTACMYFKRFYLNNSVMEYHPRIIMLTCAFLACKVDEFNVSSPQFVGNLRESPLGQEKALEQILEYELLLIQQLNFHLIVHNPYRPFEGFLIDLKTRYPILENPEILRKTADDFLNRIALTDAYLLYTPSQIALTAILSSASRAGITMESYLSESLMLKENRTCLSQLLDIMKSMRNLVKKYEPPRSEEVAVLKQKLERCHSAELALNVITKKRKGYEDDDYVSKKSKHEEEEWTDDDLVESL
T3 sequence (P51948 whole entry partner): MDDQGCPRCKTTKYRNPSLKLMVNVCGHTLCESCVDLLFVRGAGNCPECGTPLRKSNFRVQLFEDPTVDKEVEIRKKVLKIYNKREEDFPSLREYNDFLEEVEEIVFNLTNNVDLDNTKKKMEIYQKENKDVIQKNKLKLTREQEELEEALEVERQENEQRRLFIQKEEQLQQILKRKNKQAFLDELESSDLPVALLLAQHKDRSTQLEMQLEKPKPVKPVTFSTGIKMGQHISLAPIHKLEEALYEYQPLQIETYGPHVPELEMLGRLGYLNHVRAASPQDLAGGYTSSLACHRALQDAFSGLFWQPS
T2 sequence (P50750 whole entry): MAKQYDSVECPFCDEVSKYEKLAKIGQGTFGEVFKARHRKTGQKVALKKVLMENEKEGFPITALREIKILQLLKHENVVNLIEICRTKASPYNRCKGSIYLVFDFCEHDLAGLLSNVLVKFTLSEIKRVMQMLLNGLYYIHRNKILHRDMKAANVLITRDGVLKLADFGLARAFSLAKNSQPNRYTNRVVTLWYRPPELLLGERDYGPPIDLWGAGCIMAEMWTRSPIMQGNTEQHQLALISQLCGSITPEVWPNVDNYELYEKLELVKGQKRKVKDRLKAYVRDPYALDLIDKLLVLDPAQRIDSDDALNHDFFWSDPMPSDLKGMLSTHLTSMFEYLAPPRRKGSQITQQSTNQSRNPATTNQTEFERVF
T2 sequence (O60563 whole entry partner): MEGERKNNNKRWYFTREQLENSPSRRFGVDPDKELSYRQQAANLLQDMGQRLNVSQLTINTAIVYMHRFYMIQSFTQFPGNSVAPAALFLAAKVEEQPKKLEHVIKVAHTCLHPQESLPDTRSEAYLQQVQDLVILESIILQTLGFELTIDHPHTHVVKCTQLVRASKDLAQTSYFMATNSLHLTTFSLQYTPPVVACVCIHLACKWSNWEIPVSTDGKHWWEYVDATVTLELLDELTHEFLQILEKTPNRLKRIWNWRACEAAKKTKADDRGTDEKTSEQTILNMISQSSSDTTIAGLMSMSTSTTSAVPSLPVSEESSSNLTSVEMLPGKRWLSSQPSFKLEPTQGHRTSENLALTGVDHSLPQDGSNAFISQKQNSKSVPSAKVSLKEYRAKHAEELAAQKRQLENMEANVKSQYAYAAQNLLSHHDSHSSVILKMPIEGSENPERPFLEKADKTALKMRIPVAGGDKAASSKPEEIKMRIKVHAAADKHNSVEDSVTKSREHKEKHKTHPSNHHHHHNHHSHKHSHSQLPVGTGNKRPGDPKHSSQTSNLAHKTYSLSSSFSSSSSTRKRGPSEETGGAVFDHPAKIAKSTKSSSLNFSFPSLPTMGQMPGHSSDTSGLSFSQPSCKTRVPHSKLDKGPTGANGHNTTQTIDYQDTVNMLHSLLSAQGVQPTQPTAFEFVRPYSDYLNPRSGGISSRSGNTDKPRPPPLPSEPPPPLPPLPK
CDK6/cyclin D1, sequence (Q00534 whole entry): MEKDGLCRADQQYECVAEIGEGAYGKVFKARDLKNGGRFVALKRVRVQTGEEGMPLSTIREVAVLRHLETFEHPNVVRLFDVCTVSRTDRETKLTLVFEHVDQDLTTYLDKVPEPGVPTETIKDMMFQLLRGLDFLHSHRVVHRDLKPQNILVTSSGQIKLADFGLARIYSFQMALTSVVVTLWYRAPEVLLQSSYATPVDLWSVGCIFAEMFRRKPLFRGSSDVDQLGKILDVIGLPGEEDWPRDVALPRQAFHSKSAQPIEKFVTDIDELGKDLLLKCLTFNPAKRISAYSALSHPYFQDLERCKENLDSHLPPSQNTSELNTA
CDK6/cyclin D1, sequence (P24385 whole entry partner): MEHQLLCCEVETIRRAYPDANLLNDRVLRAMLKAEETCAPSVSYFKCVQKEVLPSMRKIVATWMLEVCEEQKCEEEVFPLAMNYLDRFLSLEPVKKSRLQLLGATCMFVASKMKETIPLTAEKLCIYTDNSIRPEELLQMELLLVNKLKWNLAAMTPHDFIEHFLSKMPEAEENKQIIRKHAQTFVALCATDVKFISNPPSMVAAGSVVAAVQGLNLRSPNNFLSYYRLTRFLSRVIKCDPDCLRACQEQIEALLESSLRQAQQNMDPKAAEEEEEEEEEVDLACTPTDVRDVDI
CDK4/cyclin D1, sequence (P11802 whole entry): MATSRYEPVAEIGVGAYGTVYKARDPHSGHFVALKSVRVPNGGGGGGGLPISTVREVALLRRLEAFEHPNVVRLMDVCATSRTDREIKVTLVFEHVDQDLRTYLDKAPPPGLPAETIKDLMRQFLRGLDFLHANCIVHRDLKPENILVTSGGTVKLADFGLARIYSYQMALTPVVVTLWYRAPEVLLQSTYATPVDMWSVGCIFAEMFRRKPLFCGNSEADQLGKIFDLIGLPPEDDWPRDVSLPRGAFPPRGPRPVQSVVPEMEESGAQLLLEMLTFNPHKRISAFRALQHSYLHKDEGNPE
CDK4/cyclin D1, sequence (P24385 whole entry partner): as the sequence (P24385 whole entry partner) above
CDK5/p25, sequence (Q00535 whole entry): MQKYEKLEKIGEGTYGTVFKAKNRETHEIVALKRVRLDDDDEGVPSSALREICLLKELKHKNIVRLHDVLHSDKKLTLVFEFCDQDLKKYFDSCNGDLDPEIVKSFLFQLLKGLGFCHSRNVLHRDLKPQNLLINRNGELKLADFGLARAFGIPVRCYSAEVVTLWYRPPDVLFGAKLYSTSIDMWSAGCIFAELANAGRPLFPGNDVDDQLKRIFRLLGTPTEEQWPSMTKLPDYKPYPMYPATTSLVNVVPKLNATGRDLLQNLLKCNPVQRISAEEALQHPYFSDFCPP
CDK5/p25, sequence (Q15078 99-307 partner limits assumed): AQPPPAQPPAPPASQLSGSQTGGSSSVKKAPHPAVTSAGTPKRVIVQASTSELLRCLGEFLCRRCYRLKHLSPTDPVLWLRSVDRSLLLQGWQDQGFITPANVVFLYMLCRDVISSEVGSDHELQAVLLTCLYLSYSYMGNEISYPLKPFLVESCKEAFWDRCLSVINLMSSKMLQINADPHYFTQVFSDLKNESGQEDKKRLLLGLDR
CDK5/p35, sequence (Q00535 whole entry): as the sequence (Q00535 whole entry) above
CDK5/p35, sequence (Q15078 whole entry partner): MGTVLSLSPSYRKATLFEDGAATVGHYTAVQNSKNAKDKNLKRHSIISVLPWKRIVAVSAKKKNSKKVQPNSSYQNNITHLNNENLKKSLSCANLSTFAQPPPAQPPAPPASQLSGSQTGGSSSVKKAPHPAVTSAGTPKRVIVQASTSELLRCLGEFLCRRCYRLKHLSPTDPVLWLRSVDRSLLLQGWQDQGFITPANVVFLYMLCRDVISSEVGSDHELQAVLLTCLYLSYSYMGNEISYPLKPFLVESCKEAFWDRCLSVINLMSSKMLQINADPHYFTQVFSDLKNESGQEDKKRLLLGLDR
CKD9/Cyclin H, sequence (P50750 whole entry): as the sequence (P50750 whole entry) above

SMILES: Nc1nccc(-c2c[nH]c3nccc(Oc4cccc(F)c4)c23)n1 [I-3, 4-(4-(3-fluorophenoxy)-1H-pyrrolo[2,3-b]pyridin-3-yl)pyrimidin-2-amine]
- Caspase 3/7 activation [1]: clear activation of caspase 3/7
- IC50 ([1]; Homo sapiens): 0.652 µM
- IC50 (CDK2/cyclin E [2]): 0.004 µM
- IC50 (CDK2/cyclin A): 0.004 µM
- IC50 (CDK1/cyclin A): 0.006 µM
- IC50 (CDK9/cyclin T1 [3]): 0.007 µM
- IC50 (CDK6/cyclin D1): 0.285 µM
- IC50 (CDK5/p25): 0.008 µM
- IC50 (CDK7/cyclin H [4]): 0.018 µM
- IC50 (CDK1/cyclin B): 0.008 µM
- IC50 (CDK4/cyclin D1): 0.414 µM
- IC50 (PLC/PRF/5 cells): 1.52 µM
- IC50 (MDA-MB-468; MDA-MB-468 (Basal-like 1), 72 hours, read-out: CTG and Alamar Blue Assay IC50): 0.276 µM
- IC50 (MDA-MB-468; MDA-MB-468, 72 hours, Table 6, read-out: Cell viability by CellTiter Glo IC50): 0.276 µM
- IC50 (CDK5/p35): 0.008 µM
- IC50 (CKD9/Cyclin H): 0.007 µM
- IC50 (MCF-10A; MCF-10A (Normal breast-like), read-out: CTG and Alamar Blue Assay IC50): 2.07 µM
- IC50 (MCF-10A; MCF-10A, Table 6, read-out: Cell viability by CellTiter Glo IC50): 2.07 µM
- Tmax [5]: 3.1 h
- AUC(0-inf) [5]: 1.87 µg·h/mL
- Cmax ([5]; Cmax): 0.483 µg/mL
- Tmax ([5]; iv, 5 mg/kg): 0.0833 h
- half-life ([5]; iv, 5 mg/kg): 1.15 h
- AUC(0-inf) ([5]; iv, 5 mg/kg): 3.7 µg·h/mL
- Cmax ([5]; iv, 5 mg/kg, Cmax): 5.08 µg/mL
- Cmax ([5]; po, 5 mg/kg): 0.178 µg/mL
- Tmax ([5]; po, 5 mg/kg): 0.5 h
- half-life ([5]; po, 5 mg/kg): 3.1 h
- AUC(0-inf) ([5]; po, 5 mg/kg): 1.49 µg·h/mL
- IC50 (CDK9/cyclin T1 [6]): 0.702 µM
- IC50 (CDK7/cyclin H [7]): 0.403 µM
- IC50 (CDK1/Cyclin B1): 1.07 µM
- IC50 (CDK2/Cyclin E1): 0.022 µM
- Binding of CDK2/Cyclin E in drug target engagement methods (CETSA, NanoBRET) (CDK2/cyclin E [8]): potent binding (nanomolar range)
